The test system of test [1] is α-SMA, CNN1, TAGLN, JAG1, HES1, POSTN, Pri-miR-143/145 mRNA. Briefly: Real-time PCR of contractile/fibrotic markers in RDEB fibroblasts. The class given is cell-based, human. The following applies: RDEB-FBs. From the text:
Total was extracted by TRIzol (Thermo Fisher Scientific) by monolayer fibroblast cultures, following manufacturer's instructions. RNA was reverse transcribed and amplified by using Power SYBR Green RNA-to-Ct 1-Step Kit (Thermo Fisher Scientific) on QuantStudio™ 7 Pro Real-Time PCR System (Thermo Fisher Scientific). Primer pairs used in this study are listed in Table 2: ACTA2, actin alpha 2, smooth muscle; CNN1, calponin; COL1A1, collagen type I alpha 1 chain; GAPDH, glyceraldehyde-3-phosphate dehydrogenase; HES1, hes family bHLH transcription factor 1; JAG1, jagged canonical Notch ligand 1; NOTCH1, notch receptor 1; POSTN, periostin; TAGLN, transgelin.
Relative mRNA expression levels were measured by the 2−ΔΔCT method. Hypoxanthine phosphoribosyltransferase 1 (HPRT1) was used as housekeeping gene to normalize mRNA expression levels.
In general terms: In qPCR the cycle at which signal appears reflects the starting amount.

In test [2] the test system is α-SMA, TAGLN, CNN1, JAG1. Briefly: Immunoblotting of myofibroblast/fibrotic markers in RDEB fibroblasts. Format: cell-based, human. The following applies: RDEB-FBs, 24 h, absence and presence of TGF-β1. From the text:
Whole-cell lysates were obtained in radioimmunoprecipitation assay (RIPA) buffer (Sigma-Aldrich) supplemented with phosphatase- and protease inhibitors (Merck). Different amounts of protein lysates were run under reducing conditions by using 4-12% gradient precast gels (Thermo Fisher Scientific) or hand-casting polyacrylamide gels (4-8%), depending on the protein to be assayed. Amersham™ Protran® Premium nitrocellulose membranes (pore size 0.2 μm) (Merck) were immunoblotted with primary antibodies indicated in Table 3 and incubated with horseradish peroxidase-linked secondary antibodies.
Detection was performed using Cytiva ECL™ Prime Western Blotting System (Merck) or SuperSignal West Femto (Thermo Fisher Scientific), depending on the protein to be assayed. Antibody against Notch1 (all forms; clone bTAN20) was obtained from the Developmental Studies Hybridoma Bank (DSHB) at the University of Iowa (DSHB, Iowa City, IA, USA). GAPDH (clone 14C10), Jagged1 (clone 28H8) and NOTCH1 intracellular domain (clone D3B8) were obtained from Cell Signaling (Cell Signaling Technology Inc., Beverly, MA, USA). Antibodies against TAGLN (clone #859112) and CNN1 (clone #836701) were from R&D Systems (R&D Systems, Inc. Minneapolis, MN, USA). Antibody against α-SMA (clone 1A4) was purchased from Sigma-Aldrich. Antibody against lamin B1 (LMNB1) was from Abcam (Cambridge, UK). […]

As for `CCC[C@H](N[C@H]1CCc2cc(F)cc(F)c2C1)C(=O)Nc1cn(C(C)(C)CNCC(C)(C)C)cn1` [PF-03084014, (S)-2-((S)-5,7-difluoro-1,2,3,4-tetrahydronaphthalen-3-ylamino)-N-(1-(2-methyl-1-(neopentylamino)propan-2-yl)-1H-imidazol-4-yl)pentanamide], the “mRNA levels of HES1, periostin and Pri-miR-143/145” value in test [1] was “context-dependent downregulation”. For the same compound, the “mRNA levels of contractile/fibrotic markers (real-time PCR)” value in test [1] (basal conditions and presence of TGF-β1) is “down-regulation of a selection of contractile/fibrotic markers, including α-SMA, CNN1, TAGLN and JAG1”. For the same compound, the “protein levels of contractile and fibrotic markers (immunoblotting)” value in test [2] was “down-regulation of the prototypical contractile and fibrotic markers, including JAG1”.

These data come from patent US20260060960A1, “GAMMA-SECRETASE INHIBITORS FOR USE IN THE TREATMENT OF INHERITED EPIDERMOLYSIS BULLOSA” (OSPEDALE PEDIATRICO BAMBINO GESU', priority 2022, published 2026).
